Measured values: a melting point compilation (Tetko et al.; mined from patent text by program, amines drawn as free bases though some values may be those of a salt)

Compound | melting point
O=CC(=Cc1ccc(Cl)cc1Cl)C1CCOCC1 | 82 to 85 °C
CC(=O)OCc1c(C(=O)C(=O)O)c2cc(-c3cccc(C)c3)ccc2n1Cc1ccc(C)cc1 | 89 to 90 °C
COC(=O)CCc1cc2nc(Cl)ccc2n1S(=O)(=O)c1ccc2nc(N)sc2c1 | 205 to 215 °C
CC(=O)Nc1cccc(OCc2ccccc2)c1C | 142 to 143 °C
CC(=S)NC[C@H]1CN(c2ccc(C3CCS(=O)(=O)N(C)C3)c(F)c2)C(=O)O1 (stereo not given in full) | 95 to 98 °C
Cn1cnc(N2CCc3ccccc3CC2)c(C#N)c1=O | 197 to 203 °C
O=C1CCCc2ccc(OCc3ccc4ccccc4n3)cc21 | 98.5 to 102 °C
COC(COc1ccc(Br)c(C)c1C)OC | 40 to 41 °C
COC(=O)C1CCC2C3CCC4=CC(O)CCC4(C)C3C(=O)CC12C (stereo not given) | 121 to 125 °C
N#Cc1ccc(C2=Nc3ccccc3C(=O)C2=Cc2ccncc2)cc1 | 154 to 156 °C
COc1ccccc1-c1ccc2cnc(NC(=O)Nc3ccc(N4CCN(C)CC4)cc3)nn12 | 229 to 231 °C
C=CCc1c(OCC(O)CN2CCN(Cc3ccc(Cl)cc3)CC2)ccc2c(OCc3ccccc3)cc(=O)oc12 (stereo not given) | 155 to 157 °C
CNc1nc(Br)cc(S(=O)(=O)c2ccccc2)n1 | 142 to 143 °C
COC(=O)c1cncc(OC)n1 | 73 °C
COc1ccc2c(c1)CCC1C2=CCC2(C)C(O)CCC12 (stereo not given) | 95 to 97 °C
CC(Br)c1ccc2c(-c3ccccc3)onc2c1 (stereo not given) | 99 to 102 °C
O=S(=O)(F)CCCCCCCc1ccc(O)cc1 | 47 to 51 °C
C#CCC(C(=COC)c1cccnc1)c1ccc(Cl)cc1Cl (stereo not given) | 96 to 97 °C
CCOCCNC(=O)Oc1cccc(NC(=O)C=C(C)OC)c1 | 133 to 134 °C
Nc1cc(CCC(=O)NC23CC4CC(CC(C4)C2)C3)ccc1O | 79 to 80 °C
CCCOc1ccccc1-c1nc2nc(SC)nnc2c(=O)[nH]1 | 247 to 249 °C
Cc1nnc(NC(=O)C2=C(O)c3ccc4ccccc4c3S(=O)(=O)N2C)s1 | 252 to 255 °C
CCOC(=O)c1oc2cc(-c3ccc(CO)cc3)ccc2c1C | 135 to 136 °C
O=C1c2cccc(N(CCO)CCO)c2OC12CC2 | 74 to 76 °C
OC(COc1ccc(-c2ccc(I)cc2)cc1)CN1CCCC1 (stereo not given) | 123 to 124 °C
CCN(Cc1csc(N)c1C(=O)c1ccc(Cl)cc1)c1ccccc1 | 130 to 132 °C
O=c1n(CO)c2ccccc2n1CO | 157 to 161 °C

Compound | melting point
O=C1NCC2=C1CN=C(c1ccccc1Cl)c1cc(Cl)ccc12 | 243 to 244 °C
COC(=O)C1=Cc2cc(Cl)ccc2OC1 | 106 to 109 °C
CCOC(=O)c1cn(-c2ccc(OC)cc2)[nH]c1=O | 125 to 127 °C
CC(C)(C)c1cc(C(O)C#Cc2ccc(C(=O)O)c(O)c2)cc(C(C)(C)C)c1OCOCC[Si](C)(C)C (stereo not given) | 146 to 147 °C
CC1(C)C(C=CC(=O)O)C1C(=O)OC(C#N)c1ccc(F)c(Oc2ccccc2)c1 (stereo not given) | 99 °C
CCCc1c(OCCCOc2ccc3c(c2CCC)OC(CCC(=O)OC)CC3=O)ccc(C(C)=O)c1O (stereo not given) | 101 to 102 °C
COc1ccc2c(C(=O)O)nn(Cc3ccc(Cl)c(Cl)c3)c(=O)c2c1 | 238 to 240 °C
CCOC(=O)c1cccc(Oc2ncccc2O)c1 | 117 to 118 °C
COc1ccccc1C1=CC(C)(C)Oc2ccc(C#N)cc21 | 109 to 111 °C
NC(=O)N1C(=O)C(C(=O)c2ccco2)c2ccc(F)cc21 (stereo not given) | 231 to 235 °C
C=CCc1c(O)ccc2oc(C(=O)c3ccc(OC)cc3)c(C)c12 | 155 to 158 °C
Nc1nc(=O)n(S(=O)(=O)c2ccc(Cl)cc2)cc1F | 174 to 178 °C
CC(C)=C(C(=O)O)c1ccc(Cl)cc1 | 144 to 145 °C
OCCN1CCC(=C2c3sccc3CCn3ncnc32)CC1 | 150 °C
CCNc1ccc(C(=O)Nc2ccc3ccc(OC)nc3n2)cc1 | 134 °C
COC(=O)c1sc(-c2ccc(OC)cc2)cc1NC(C)=O | 148 to 149 °C
COC(=O)C1=C(C)NC(C)=C(C(=O)OCCCCN(C)CCC(c2ccccc2)c2ccccc2)C1c1cccc([N+](=O)[O-])c1 (stereo not given) | 91 to 103 °C
CCCCc1ncc(/C=C(\Cc2cccs2)C(=O)O)n1Cc1ccc(C(=O)O)cn1 | 212 to 213 °C
Cc1ccc(S(=O)(=O)OCC2Cc3cccc(O)c3O2)cc1 (stereo not given) | 122 to 125 °C
CCc1cnc(-n2cc(CCCO)c(C(C)C)n2)nc1 | 70 to 71 °C
CC(C(=S)c1cccc(NC=O)n1)S(C)=O (stereo not given) | 130 to 132 °C
COC(=O)CN1CC(N2C(=O)c3ccccc3C2=O)C1=O (stereo not given) | 178 to 180 °C
Fc1ccc(-c2cc3ccccc3[nH]c2=S)cc1 | 259 to 262 °C
NC(=O)Nc1ccc2c(=O)n(CCCCN3CC=C(c4ccccc4)CC3)c(=O)[nH]c2c1 | 260 °C
OCCc1ccc(OCc2ccc(Cl)cc2Cl)cc1 | 55 °C
COC(=O)c1c(C)[nH]c(-c2ncccn2)c1C(=O)OC | 140 to 146 °C
CCCC(CCC)CCCC(N)=O | 44 °C

Continued, values first:

melting point | Compound
153 to 155 °C | CC(=O)OCc1ccc2oc(=O)c(C(=O)Oc3cncc(Cl)c3)cc2c1
107 to 109 °C | CCCC(=O)c1cnc2ccccc2c1Nc1ccccc1C
130 to 136 °C | Cc1c(Cc2ccccc2)c(=O)oc2cc(OCC3NOC(=O)N3)cc(OCC3NOC(=O)N3)c12 (stereo not given)
88 to 92 °C | CCOC(Cc1ccc(OCc2nc3ccc(OC)cc3n2C)cc1)C(=O)OC (stereo not given)
119 to 123 °C | CCCN(C)CCOc1ccc(-n2ccc(OCc3ccc(Cl)cn3)cc2=O)cc1
36 to 37 °C | CCC(C)(C)c1ccc(OCCCCNC(=O)CS(=O)(=O)c2ccc([N+](=O)[O-])cc2)c(C(C)(C)CC)c1
169 to 172 °C | O=C(Nc1ccc(Cl)cc1)NS(=O)(=O)c1ccc2c(c1)CCC2
110 to 111 °C | CCCCCCCCCCCCCCCCCCN(CCCCCCCCCCCCCCCCCC)c1ccccc1
54 to 58 °C | CON(C)C(=O)c1ccc(-c2ccc(C)cc2)o1
> 250 °C | COc1cc2cc(CO)c(CO)c(-c3ccnc(-n4nc(O)c5ccccc5c4=O)c3)c2cc1OC
340 to 343 °C | Cc1[nH]c(C)c(-c2ccc(Oc3ccc(Cl)cc3)cc2)c(=O)c1Cl
165 to 166 °C | Cc1ccc(-c2c(Cl)nc(-c3ccccc3)nc2Cl)cc1
243 to 245 °C | Cc1cncn1-c1cc(C(=O)O)cc(C(F)(F)F)c1
189 to 192 °C | Cc1ccc(-c2cncnc2O)cc1
228 to 232 °C | COc1ccc(N2CC(=O)c3ccccc3S2)cc1O
130 to 134 °C | COC(=O)c1c(S(=O)C(C)C)c2cc(OC)ccc2n1C (stereo not given)
155 to 159 °C | COC(=O)c1cccc(NC(=O)C=C(c2ccc(Cl)cc2)c2ccc(Cl)cc2)c1
154 to 155 °C | Cc1oc(-c2ccccc2)nc1COc1ccc(Cn2cc(/C=C/C(=O)O)c(-c3ccccc3)c2)cc1
195 to 198 °C | N#Cc1cc2ccc(O)cc2s1
129 to 131 °C | COc1ccc(-c2nc(C)c(C(=O)O)s2)cc1
117 to 118 °C | CNC(=O)C(C)NC(=O)OC(C)(C)C (stereo not given)
112 °C | CC1SC(c2cccnc2)N(c2ccccc2F)C1=O (stereo not given)
161 °C | CSc1c(C(N)=S)nn(-c2c(Cl)cc(C(F)(F)F)cc2Cl)c1N
68 to 69 °C | CSCC[C@H](NC(=O)C1(CS)Cc2ccccc2C1)C(=O)O
166 to 167 °C | CC1(C)CCSc2ccc(C(O)COc3ccc(C(=O)O)c(O)c3)cc21 (stereo not given)
55 to 57 °C | OC1CCCCC1c1ccccc1 (stereo not given)

melting point | Compound
45 to 46 °C | ON=Cc1cccc(Oc2ccccc2)c1
142 to 143 °C | COc1ccc(N2C(=O)CC(Cl)C2=O)cc1 (stereo not given)
167 to 168 °C | Fc1cc2nc3c(cnn3-c3ccccn3)c(Cl)c2cc1F
359 to 361 °C | Cn1cc(-c2cc3cccnc3[nH]2)c2ccc(C(=O)O)cc21
94 to 95 °C | Cn1nc(N)nc1NCCCOc1cccc(CN2CCCCC2)c1
237 to 239 °C | NC(=O)c1ccc2nc(C(=O)NCc3ccnc(OCC4CCOC4)c3)[nH]c(=O)c2c1 (stereo not given)
71 to 71.5 °C | O=CC1=C(c2ccc(Cl)c(Cl)c2)C2CCC1CC2
179 to 181 °C | Cc1nc(-c2cccnc2)c(C)[nH]1
95 °C | CCCN(C1=C(O)CC(CCc2ccc(O)cc2)(C2CCCC2)OC1=O)c1ccccc1 (stereo not given)
120 to 121 °C | COC(=O)/C(=C/CC[C@H](NC(=O)OCc1ccccc1)C(=O)N[C@H](C)C(=O)OC)NC(=O)OC(C)(C)C
232 to 236 °C | CC(C)(C)c1ccc(C2CCCN3CCS(=O)(=O)N=C23)cc1 (stereo not given)
> 270 °C | CCn1c(=O)c2[nH]c(/C=C/c3ccc(-c4ccccc4)cc3)nc2n(CC)c1=O
114 to 116 °C | C(#Cc1cc2ccccc2s1)c1cccs1
114 to 116 °C | CCOC(=O)CN1C(=O)C(Br)CCc2ccccc21 (stereo not given)
214 to 216 °C | CC(=O)Nc1cccc(/C=C/C(=O)N2CC(CCl)c3c2cc([N+](=O)[O-])c2ccccc32)c1 (stereo not given)
256 to 259 °C | O=c1[nH]c2ccccc2cc1CN1CCN(c2ccc(Cl)cc2)CC1
171 to 173 °C | Cc1c(C)c2c(c(C)c1NC(=O)CC(C)(C)C)C(c1ccc(C(C)C)cc1)CO2 (stereo not given)
110 to 115 °C | CNC(=O)N1CCC(Oc2ccc([N+](=O)[O-])cc2)(c2ccccc2)CC1
199 to 201 °C | O=c1oc(-c2ccccc2)nc2ccc(Br)cc12
110 to 113 °C | Fc1ccc(Oc2ccc3nc(Cl)ncc3c2)c(F)c1
220 to 225 °C | Cc1ccc(-c2cc(NC(=O)C3Cc4ccccc4C3)n[nH]2)cc1
103 to 104 °C | Cc1nn(-c2c(Cl)cc(C(F)(F)F)cc2Cl)nc1CC#N
222 °C | CCOC(=O)C1=COc2cc(C(C)(C)C)c(O)cc2O1
127 to 128 °C | CCCc1nc2c(N)nc(C)c(C)c2n1CCCCS(=O)(=O)N(C)C
193 to 194 °C | CC(C)(C)N1C(=O)c2cnc(-c3ccccc3)nc2N(C(=O)CN2CCCCC2)c2ccccc21
